Measurements published in US9499550B2 (BRISTOL-MYERS SQUIBB COMPANY, priority 2012, dated 2016).
Where two headings read alike, the source gives them in different places.

Key:
[1] = system: HCV genotype 1b (Con1) replicon in HUH-7 cells; experiment: HCV replicon luciferase reporter assay, genotype 1b; type: cell-based; settings: Hepatitis C virus, Huh-7, 72 h, 3 days incubation
Procedure, shortened: (§1)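 Replicon inhibition for both genotypes was measured as Renilla luciferase signal (EnduRen, 7.5 μM final, 2 h) after 3-day, 37° C exposure of replicon-bearing HUH-7 cells in 4% FCS DMEM, 0.5% DMSO. The 1b construct carries S1179I; the 1a H77 construct carries P1496L and S2204I. Twenty-point, 3-fold dilutions were fitted four-parametrically for EC50, and CC50 was taken from multiplexed Cell Titer-Blue.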

[2] = system: HCV genotype 1a (H77 strain) replicon in HUH-7 cells; experiment: HCV replicon luciferase reporter assay, genotype 1a; type: cell-based; settings: Hepatitis C virus, Huh-7, 72 h, 3 days incubation
Procedure, shortened: as §1

[3] = HCV genotype 1b replicon luciferase, read-out: LE_1b (EC50, range)
[4] = HCV genotype 1a replicon luciferase, read-out: LE_1a (EC50, range)
[5] = HCV genotype 1b replicon luciferase assay, range class, read-out: LE_1b (EC50, range)
[6] = HCV genotype 1a replicon luciferase assay, range class, read-out: LE_1a (EC50, range)
[7] = HCV genotype 1b replicon luciferase, read-out: LE_1b (EC50)
[8] = HCV genotype 1a replicon luciferase, read-out: LE_1a (EC50)

Row | Compound | EC50 [1, 3] | EC50 [2, 4] | EC50 [1, 5] | EC50 [2, 6] | also measured
1 | COc1cnc(O[C@@H]2C[C@H]3C(=O)N[C@]4(C(=O)NS(=O)(=O)C5(CO)CC5)C[C@H]4/C=C\CC[C@H](C)C[C@@H](C)[C@H](NC(=O)OC(C)(C)C)C(=O)N3C2)c2ccccc12 [Compound 4115, tert-butyl (2R,6S,7R,9S,13aS,14aR,16aS,Z)-14a-(1-(hydroxymethyl)cyclopropylsulfonylcarbamoyl)-2-(4-methoxyisoquinolin-1-yloxy)-7,9-dimethyl-5,16-dioxo-1,2,3,5,6,7,8,9,10,11,13a,14,14a,15,16,16a-hexadecahydrocyclopropa[e]pyrrolo[1,2-a][1,4]diazacyclopentadecin-6-ylcarbamate] | < 5.46 nM | < 5.46 nM | – | – | –
2 | COCC(C)(C)OC(=O)N[C@@H]1C(=O)N2C[C@H](Oc3ncc(OC)c4ccccc34)C[C@H]2C(=O)N[C@]2(C(=O)NS(=O)(=O)C3(CF)CC3)C[C@H]2/C=C\CC[C@@H](C)C[C@H]1C [Compound 1050, 1-methoxy-2-methylpropan-2-yl((2R,6S,7R,9R,13aS,14aR,16aS,Z)-14a-(((1-(fluoromethyl)cyclopropyl)sulfonyl)carbamoyl)-2-((4-methoxyisoquinolin-1-yl)oxy)-7,9-dimethyl-5,16-dioxo-1,2,3,5,6,7,8,9,10,11,13a,14,14a,15,16,16a-hexadecahydrocyclopropa[e]pyrrolo[1,2-a][1,4]diazacyclopentadecin-6-yl)carbamate] | – | – | < 5.46 nM | < 5.46 nM | –
3 | C[C@@H]1CC/C=C\[C@@H]2C[C@@]2(C(=O)NS(=O)(=O)C2(C)CC2)NC(=O)[C@@H]2C[C@@H](Oc3ncc(OCC4CC4)c4ccccc34)CN2C(=O)[C@@H](NC(=O)OC(C)(C)C(F)(F)F)[C@H](C)C1 [Compound 4158] | – | – | – | – | EC50 ([1]; GETYPE1B, HCV genotype 1b replicon luciferase, read-out: LE_1b (EC50, range)): < 5.46 nM; EC50 ([2]; GETYPE1A, HCV genotype 1a replicon luciferase, read-out: LE_1a (EC50, range)): < 5.46 nM
4 | CCOc1cc2ccccc2c(O[C@@H]2C[C@H]3C(=O)N[C@]4(C(=O)NS(=O)(=O)C5(CF)CC5)C[C@H]4/C=C\CC[C@@H](C)C[C@@H](C)[C@H](NC(=O)OC(C)(C)C(F)(F)F)C(=O)N3C2)n1 [Compound 6112, 1,1,1-trifluoro-2-methylpropan-2-yl((2R,6S,7R,9R,13aS,14aR,16aS,Z)-2-((3-ethoxyisoquinolin-1-yl)oxy)-14a-(((1-(fluoromethyl)cyclopropyl)sulfonyl)carbamoyl)-7,9-dimethyl-5,16-dioxo-1,2,3,5,6,7,8,9,10,11,13a,14,14a,15,16,16a-hexadecahydrocyclopropa[e]pyrrolo[1,2-a][1,4]diazacyclopentadecin-6-yl)carbamate] | 0.51 to 1 nM | 1.01 to 5 nM | – | – | –
5 | COCCOc1cc2c(Cl)cccc2c(O[C@@H]2C[C@H]3C(=O)N[C@]4(C(=O)NS(=O)(=O)C5(C)CC5)C[C@H]4/C=C\CC[C@H](C)C[C@@H](C)[C@H](NC(=O)OC(C)(C)C(C)(F)F)C(=O)N3C2)n1 [Compound 1115, 3,3-difluoro-2-methylbutan-2-yl((2R,6S,7R,9S,13aS,14aR,16aS,Z)-2-((5-chloro-3-(2-methoxyethoxyl)isoquinolin-1-yl)oxy)-7,9-dimethyl-14a-(((1-methylcyclopropyl)sulfonyl)carbamoyl)-5,16-dioxo-1,2,3,5,6,7,8,9,10,11,13a,14,14a,15,16,16a-hexadecahydrocyclopropa[e]pyrrolo[1,2-a][1,4]diazacyclopentadecin-6-yl)carbamate] | – | – | < 5.46 nM | < 5.46 nM | –
6 | COc1ccc2c(Cl)ncc(O[C@@H]3C[C@H]4C(=O)N[C@]5(C(=O)NS(=O)(=O)C6(C)CC6)C[C@H]5/C=C\CC[C@@H](C)C[C@@H](C)[C@H](NC(=O)OC(C)(C)C)C(=O)N4C3)c2c1 [Compound 4375, tert-butyl ((2R,6S,7R,9R,13aS,14aR,16aS,Z)-2-((1-chloro-6-methoxyisoquinolin-4-yl)oxy)-7,9-dimethyl-14a-(((1-methylcyclopropyl)sulfonyl)carbamoyl)-5,16-dioxo-1,2,3,5,6,7,8,9,10,11,13a,14,14a,15,16,16a-hexadecahydrocyclopropa[e]pyrrolo[1,2-a][1,4]diazacyclopentadecin-6-yl)carbamate] | 0.51 to 1 nM | 1.01 to 5 nM | – | – | –
7 | CC[C@@H]1C[C@H](C)CC/C=C\[C@@H]2C[C@@]2(C(=O)NS(=O)(=O)C2(C)CC2)NC(=O)[C@@H]2C[C@@H](Oc3nc(OC)cc4ccccc34)CN2C(=O)[C@H]1NC(=O)OC(C)(C)C [Compound 6005, tert-butyl ((2R,6S,7R,9R,13aS,14aR,16aS,Z)-7-ethyl-2-((3-methoxyisoquinolin-1-yl)oxy)-9-methyl-14a-(((1-methylcyclopropyl)sulfonyl)carbamoyl)-5,16-dioxo-1,2,3,5,6,7,8,9,10,11,13a,14,14a,15,16,16a-hexadecahydrocyclopropa[e]pyrrolo[1,2-a][1,4]diazacyclopentadecin-6-yl)carbamate] | < 5.46 nM | < 5.46 nM | – | – | EC50 [1, 7]: 0.28 nM; EC50 [2, 8]: 1.29 nM
8 | C[C@@H]1CC/C=C\[C@@H]2C[C@@]2(C(=O)NS(=O)(=O)C2(CF)CC2)NC(=O)[C@@H]2C[C@@H](Oc3cnc4ccccc4n3)CN2C(=O)[C@@H](NC(=O)OC(C)(C)C)[C@H](C)C1 [Compound 4130, tert-butyl (2R,6S,7R,9R,13aS,14aR,16aS,Z)-14a-(1-(fluoromethyl)cyclopropylsulfonylcarbamoyl)-7,9-dimethyl-5,16-dioxo-2-(quinoxalin-2-yloxy)-1,2,3,5,6,7,8,9,10,11,13a,14,14a,15,16,16a-hexadecahydrocyclopropa[e]pyrrolo[1,2-a][1,4]diazacyclopentadecin-6-ylcarbamate] | 4.82 to 103 nM | 4.82 to 103 nM | – | – | –
9 | CC[C@@H]1C[C@H](C)CC/C=C\[C@@H]2C[C@@]2(C(=O)NS(=O)(=O)C2CC2)NC(=O)[C@@H]2C[C@@H](Oc3nccc4c5c(ccc34)N(C)CCO5)CN2C(=O)[C@H]1NC(=O)O[C@@H]1C[C@@H]2C[C@@H]2C1 [Compound 5314, (1R,3r,5S)-bicyclo[3.1.0]hexan-3-yl((2R,6S,7R,9R,13aS,14aR,16aS,Z)-14a-((cyclopropylsulfonyl)carbamoyl)-7-ethyl-9-methyl-2-((4-methyl-3,4-dihydro-2H-[1,4]oxazino[2,3-f]isoquinolin-7-yl)oxy)-5,16-dioxo-1,2,3,5,6,7,8,9,10,11,13a,14,14a,15,16,16a-hexadecahydrocyclopropa[e]pyrrolo[1,2-a][1,4]diazacyclopentadecin-6-yl)carbamate] | < 5.46 nM | < 5.46 nM | – | – | EC50 [1, 7]: 1.06 nM; EC50 [2, 8]: 1.59 nM
10 | CC(C)Oc1cc2ccccc2c(O[C@@H]2C[C@H]3C(=O)N[C@]4(C(=O)NS(=O)(=O)C5(C)CC5)C[C@H]4/C=C\CC[C@@H](C)C[C@@H](C)[C@H](NC(=O)OC(C)(C)C)C(=O)N3C2)n1 [Compound 6098, tert-butyl ((2R,6S,7R,9R,13aS,14aR,16aS,Z)-2-((3-isopropoxyisoquinolin-1-yl)oxy)-7,9-dimethyl-14a-(((1-methylcyclopropyl)sulfonyl)carbamoyl)-5,16-dioxo-1,2,3,5,6,7,8,9,10,11,13a,14,14a,15,16,16a-hexadecahydrocyclopropa[e]pyrrolo[1,2-a][1,4]diazacyclopentadecin-6-yl)carbamate] | 0.1 to 0.5 nM | 0.51 to 1 nM | – | – | –
11 | CCOc1ccc2c(O[C@@H]3C[C@H]4C(=O)N[C@]5(C(=O)NS(=O)(=O)C6(C)CC6)C[C@H]5/C=C\CC[C@@H](C)C[C@@H](C)[C@H](NC(=O)OC(C)(C)C(F)(F)F)C(=O)N4C3)ncc(OC)c2c1 [Compound 3140, 1,1,1-trifluoro-2-methylpropan-2-yl((2R,6S,7R,9R,13aS,14aR,16aS,Z)-2-((6-ethoxy-4-methoxyisoquinolin-1-yl)oxy)-7,9-dimethyl-14a-(((1-methylcyclopropyl)sulfonyl)carbamoyl)-5,16-dioxo-1,2,3,5,6,7,8,9,10,11,13a,14,14a,15,16,16a-hexadecahydrocyclopropa[e]pyrrolo[1,2-a][1,4]diazacyclopentadecin-6-yl)carbamate] | – | – | < 5.46 nM | < 5.46 nM | –
12 | CC(C)n1nc(O[C@@H]2C[C@H]3C(=O)N[C@]4(C(=O)NS(=O)(=O)C5CC5)C[C@H]4/C=C\CC[C@@H](C)C[C@@H](C)[C@H](NC(=O)OC(C)(C)C(C)(F)F)C(=O)N3C2)c2ccccc2c1=O [Compound 1018, 3,3-difluoro-2-methylbutan-2-yl((2R,6S,7R,9R,13aS,14aR,16aS,Z)-14a-((cyclopropylsulfonyl)carbamoyl)-2-((3-isopropyl-4-oxo-3,4-dihydrophthalazin-1-yl)oxy)-7,9-dimethyl-5,16-dioxo-1,2,3,5,6,7,8,9,10,11,13a,14,14a,15,16,16a-hexadecahydrocyclopropa[e]pyrrolo[1,2-a][1,4]diazacyclopentadecin-6-yl)carbamate] | – | – | 4.82 to 103 nM | 4.82 to 103 nM | –
13 | COc1ccc2c(O[C@@H]3C[C@H]4C(=O)N[C@]5(C(=O)NS(=O)(=O)C6(C(F)F)CC6)C[C@H]5/C=C\CC[C@@H](C)C[C@@H](C)[C@H](NC(=O)OC(C)(C)C(F)(F)F)C(=O)N4C3)nc(OC)cc2c1 [Compound 1181] | – | – | – | – | EC50 ([1]; GETYPE1B, HCV genotype 1b replicon luciferase assay, range class, read-out: LE_1b (EC50, range)): < 5.46 nM; EC50 ([2]; GETYPE1A, HCV genotype 1a replicon luciferase assay, range class, read-out: LE_1a (EC50, range)): < 5.46 nM
